Measured values published in paper PMC6010002, “Synthesis, pharmacology and molecular docking on multifunctional tacrine-ferulic acid hybrids as cholinesterase inhibitors against Alzheimer’s disease” (Journal of Enzyme Inhibition and Medicinal Chemistry, 2018).
Like-named read-outs stand apart in the source and are kept apart here.

Columns and labels:
[1] = target: T1, AChE (EC 3.1.1.7) from electric eel (Electrophorus electricus, UniProt O42275); assay: biochemical; conditions: for SI (selectivity index, AChE IC50/BuChE IC50): eeAChE IC50 / eqBuChE IC50; for IC50: eeAChE, mean ± SEM of triplicate independent experiments
T1 construct: AChE (EC 3.1.1.7, Type VI-S, from electric eel, C3389); purchased Sigma-Aldrich C3389; host or cells: electric eel (natural source)
Experimental: (§1) AChE (EC 3.1.1.7, Type VI-S, from electric eel, C3389) and BuChE (EC 3.1.1.8, from equine serum, C0663), 5,5’-dithiobis (2-nitrobenzoic acid) (DTNB, D218200), acetylthiocholine iodide (ATC, A5751) and butyrylthiocholine iodide (BTC, B3253) used as substrates were obtained from Sigma-Aldrich (St. Louis, MO).
(§2) The inhibitory capacity of the synthesised compounds on AChE and BuChE biological activity in this paper were evaluated according to our previously reported method. Briefly, AChE/BuChE stock solution was diluted with 0.2 M phosphate buffer pH 8.0 to give 2.5 units/mL (for electrophorus electricus (eeAChE) and equine serum (eqBuChE)). ATC/BTC iodide solution (0.075 M) was dissolved in deionized water. […] The assay solution was prepared as follows: potassium dihydrogen phosphate (1.36 g, 10 mmol) was dissolved in 100 ml of water. The pH of the solution was then adjusted to 8.0 ± 0.1 with KOH. Stock solutions of the test samples were dissolved in ethanol to give a final concentration of 10 − 4^ M when diluted to the final volume of 3.32 ml. For each compound, a dilution series of five different concentrations 10 − 5–10 − 9^9 M were prepared.
(§3) For measurement, a cuvette containing 3 mL of phosphate buffer, 100 μL of eeAChE or eqBuChE, 100 μL of DTNB, and 100 μL of the test compound solution was added in sequence. The reaction was initiated by adding 20 μL of ATC or BTC and the solution was mixed immediately. […] For the reference value, 100 μL of water was replaced for the test compound solution. For the blank control, additional 100 μL of water was also replaced for the enzyme solution. The measurement of each concentration was assayed in triplicate. GraphPad Prism 5 (GraphPad Software, Inc., La Jolla, CA) was used for data processing. The inhibition curve was fitted by plotting percentage enzyme activity (100% for the reference) versus the logarithm of test compound concentration. The half maximal inhibitory concentration (IC50) values were calculated according to the curve and the data were shown in mean ± SEM.
(§4) Inhibitory activities were presented as IC50 (nM).

[2] = target: T2, BuChE (EC 3.1.1.8) from horse serum (Equus caballus, UniProt P81908); assay: biochemical; conditions: eqBuChE, mean ± SEM of triplicate independent experiments
T2 construct: BuChE (EC 3.1.1.8, from equine serum, C0663); purchased Sigma-Aldrich C0663; host or cells: equine serum (natural source)
Experimental: as §1, §2, §3, §4

[3] = system: scopolamine-induced cognition-impaired adult ICR mice; assay: Morris water maze in scopolamine-induced cognition-impaired mice; type: in vivo; conditions: 30 mg/kg oral, scopolamine 1 mg/kg i.p., mean ± SEM n = 6
Experimental: Behavioral studies were performed using the Morris water maze[25] according to our method reported previously. Adult male imprinting control region (ICR) mice (8–10 weeks old, weight 20–25 g) were obtained from the Yangzhou University Medical Center (Yangzhou, China). All animal handling and experimental protocols were approved by the Institutional Animal Care and Use Committee of the China Pharmaceutical University. Scopolamine hydrobromide was purchased from Aladdin Reagents (S107418, Shanghai, China).
A circular pool (120 cm in diameter, 60 cm height) which was fixed with an escape platform (10 cm diameter) and filled to a depth of 40 cm fresh water (kept at 25 °C) composed the water maze and this water maze placed in a lit room was used to evaluate the cognition function and memory capacity of mice according to our previously described method[24] . After five days of learning and memory training, a probe trial was performed on day 6. For the evaluation of cognitive function, each mouse was individually trained on a visible-platform (labeled by a small flag, 5 cm tall) for two days and was followed by a hidden-platform version (placed 1 cm below the surface of the water) of the water maze from day 3 to day 5. All mice were subjected to two training trials daily, each of which lasted for 90 s. The time for each mouse to find the platform (a successful escape) was recorded. […] On the last day (day 6), a probe trial was given to the mice in which the platform was removed from the pool and each mouse was allowed 90 s to search for the platform. The time the animals spent to reach the missing platform location and the number of times they crossed that location were recorded.
Data for the time of escape latency, the swimming trajectory, and the number of visual platform crossings were recorded by Panlab SMART 3.0 (Panlab, S.L.U, Spain) and GraphPad Prism 5 was used to evaluate the level of memory retention.

adult male ICR mice = type: in vivo; conditions: serum, 3 mg/100 g body weight, mean ± SEM n = 6
Experimental: . Heparinised serum was obtained from the retrobulbar plexus 8, 22, and 36 h after the administration and were subjected to hepatotoxicity evaluation. The activity of aspartate aminotransferase (AST) and alanine aminotransferase (ALT), two indicators of liver damage, was determined by a commercial assay kit (EF551 and EF550 for ALT, EH027 and EF548 for AST, Wako, Japan). The data were analysed by Biochemical Analyzer (HITACHI 7020, Japan).
Mice were sacrificed 1 h after the collection of retrobulbar blood and livers were removed for morphological studies by using the immunohistochemical method. Two 3 mm sections of each liver extending from the hilus to the margin of the left lateral lobe were isolated using ultra-thin semiautomatic microtome (Leica RM2245, Germany) and placed in 10% buffered formaldehyde immediately, fixed for two days, and embedded together in one paraffin block by using paraffin embedding station (Leica EG1150H, Germany). Subsequently, 5 μm sections were prepared from these paraffin blocks. They were deparaffinated and stained with hematoxylin and eosin (H&E) for histopathological examinations.

HepG2 cells = conditions: 24 h, MTT, mean ± SEM n = 3
Experimental: To determine the possible drug-induced hepatotoxicity, 10d and 10g were selected for preliminary hepatotoxicity evaluation. Heparinised serum was obtained after the treatment of the compounds at 8, 22, and 36 h, respectively. […] Additionally, immunohistochemical staining was performed on the liver tissues for the histopathological study.
Methods for Cell Viability Assay. The human hepatocellular HepG2 cells were […]
Cells were seeded into 96-well plates at a density of 3
37 °C for the following experiments. For cytotoxicity test, cells were treated with 0.05- […]
Cell viability was measured by 3-(4,5- dimethylthiazol-2-yl)-2,5-diphenyltetrazolium bromide (MTT) analysis. In brief, 15 µL of MTT was added into each well and incubated at 37 °C for 4 h. The […]
viability was calculated and presented by the percentage of vehicle-treated group.

Aβ1–42 = target: T3, Aβ1–42 (Homo sapiens, UniProt P05067); assay: Inhibition of self-induced Aβ1–42 aggregation (Thioflavin T assay); type: biochemical; conditions: ThT fluorescence, 24 h incubation, read-out: Inhibitory rate of compounds (25 μM) on self-induced Aβ1-42 aggregation
T3 construct: aliquots of 2 μL of Aβ1–42 (AS-64129–05 Anaspec Inc.); purchased Anaspec Inc. AS-64129–05
Experimental: Inhibitory effects of the compounds on self-induced Aβ1–42 aggregation were tested through a Thioflavin T (ThT)-(T3516, Sigma-Aldrich) binding assay.
The calculation of the inhibitory rate of Aβ1–42 self-induced aggregation was performed as the following equation: (1 − IFi/IFc) × 100%. IFi and IFc were the fluorescence intensities measured in the presence and absence of inhibitors, respectively, after subtracting the background fluorescence of the 5 mM ThT solution. Each compound was measured in triplicate.
A thioflavin T-based fluorometric assay was performed.

T1 sequence (O42275 24-633): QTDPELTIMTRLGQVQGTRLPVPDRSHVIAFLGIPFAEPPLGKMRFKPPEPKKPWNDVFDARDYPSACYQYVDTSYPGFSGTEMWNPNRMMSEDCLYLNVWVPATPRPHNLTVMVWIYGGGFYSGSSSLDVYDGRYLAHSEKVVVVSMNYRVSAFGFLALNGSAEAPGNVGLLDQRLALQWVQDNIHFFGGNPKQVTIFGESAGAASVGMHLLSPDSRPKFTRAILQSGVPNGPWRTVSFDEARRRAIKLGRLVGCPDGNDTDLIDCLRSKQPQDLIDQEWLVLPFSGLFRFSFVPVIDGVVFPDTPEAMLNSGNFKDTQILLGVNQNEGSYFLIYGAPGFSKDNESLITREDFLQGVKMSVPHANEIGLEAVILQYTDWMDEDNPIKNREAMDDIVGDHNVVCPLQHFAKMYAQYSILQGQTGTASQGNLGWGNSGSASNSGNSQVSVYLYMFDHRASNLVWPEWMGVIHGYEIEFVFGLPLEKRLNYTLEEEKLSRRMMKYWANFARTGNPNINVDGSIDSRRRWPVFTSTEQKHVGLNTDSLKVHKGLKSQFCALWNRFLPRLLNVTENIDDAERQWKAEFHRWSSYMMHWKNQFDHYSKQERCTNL
T2 sequence (P81908 whole entry): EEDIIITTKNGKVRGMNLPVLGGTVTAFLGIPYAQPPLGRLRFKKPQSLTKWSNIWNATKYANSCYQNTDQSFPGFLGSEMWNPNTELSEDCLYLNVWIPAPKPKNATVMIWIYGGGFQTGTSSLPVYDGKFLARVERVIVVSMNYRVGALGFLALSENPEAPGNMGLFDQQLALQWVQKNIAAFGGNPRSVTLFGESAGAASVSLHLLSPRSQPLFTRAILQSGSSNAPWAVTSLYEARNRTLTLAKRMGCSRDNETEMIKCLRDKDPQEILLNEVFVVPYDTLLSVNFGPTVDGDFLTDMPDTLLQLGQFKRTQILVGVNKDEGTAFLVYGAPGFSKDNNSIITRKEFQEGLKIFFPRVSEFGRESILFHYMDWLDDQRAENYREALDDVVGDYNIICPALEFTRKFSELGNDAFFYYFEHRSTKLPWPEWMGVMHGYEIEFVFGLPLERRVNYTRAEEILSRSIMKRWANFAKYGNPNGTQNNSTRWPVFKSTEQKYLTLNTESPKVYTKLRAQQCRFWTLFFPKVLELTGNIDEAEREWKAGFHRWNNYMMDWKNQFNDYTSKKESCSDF
T3 sequence (P05067 672-713): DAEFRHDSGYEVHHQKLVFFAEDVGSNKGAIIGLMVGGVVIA

COc1cccc(COc2ccc(/C=C/C(=O)NCCNc3c4c(nc5ccccc35)CCCC4)cc2OC)c1 [Compound 10l, (E)-3–(3-methoxy-4-((3-methoxybenzyl)oxy)phenyl)-N-(2-((1,2,3,4-tetrahydroacridin-9-yl)amino)ethyl)acrylamide]
SI (selectivity index, AChE IC50/BuChE IC50) [1]: 0.7 | IC50 [1]: 143 ± 40.1 nM | IC50 [2]: 195 ± 16.5 nM

COc1cc(/C=C/C(=O)NCCNc2c3c(nc4ccccc24)CCCC3)ccc1OCc1ccc(C(F)(F)F)cc1 [Compound 10k, (E)-3–(3-methoxy-4-((4-(trifluoromethyl)benzyl)oxy)phenyl)-N-(2-((1,2,3,4-tetrahydroacridin-9-yl)amino)ethyl)acrylamide]
SI (selectivity index, AChE IC50/BuChE IC50) [1]: 2.4 | IC50 [1]: 129 ± 16.5 nM | IC50 [2]: 52.7 ± 6.3 nM

COc1cc(/C=C/C(=O)NCCNc2c3c(nc4ccccc24)CCCC3)ccc1OCc1ccc(C(C)(C)C)cc1 [Compound 10i, (E)-3–(4-((4-(tert-butyl)benzyl)oxy)-3-methoxyphenyl)-N-(2-((1,2,3,4-tetrahydroacridin-9-yl)amino)ethyl)acrylamide]
SI (selectivity index, AChE IC50/BuChE IC50) [1]: 1.8 | IC50 [1]: 284 ± 59.2 nM | IC50 [2]: 158 ± 22.8 nM

COc1cc(/C=C/C(=O)NCCNc2c3c(nc4ccccc24)CCCC3)ccc1OCc1ccccc1C [Compound 10e, (E)-3–(3-methoxy-4-((2-methylbenzyl)oxy)phenyl)-N-(2-((1,2,3,4-tetrahydroacridin-9-yl)amino)ethyl)acrylamide]
SI (selectivity index, AChE IC50/BuChE IC50) [1]: 0.7 | IC50 [1]: 64.5 ± 7.4 nM | IC50 [2]: 98.6 ± 19.1 nM

COc1cc(/C=C/C(=O)NCCNc2c3c(nc4ccccc24)CCCC3)ccc1OCc1cccc(C)c1 [Compound 10f, (E)-3–(3-methoxy-4-((3-methylbenzyl)oxy)phenyl)-N-(2-((1,2,3,4-tetrahydroacridin-9-yl)amino)ethyl)acrylamide]
SI (selectivity index, AChE IC50/BuChE IC50) [1]: 0.2 | IC50 [1]: 63.2 ± 13.5 nM | IC50 [2]: 257 ± 3.7 nM

Nc1c2c(nc3ccccc13)CCCC2 [Tacrine]
Distance to target [3]: 725.64 ± 165.15 cm | Speed in virtual platform [3]: 15.78 ± 1.03 cm/s | Latency to target ([3]; probe trial): 25.85 ± 5.52 s | ALT (adult male ICR mice; 8 h after i.g. administration): 31.8 ± 2.0 U/L | AST (adult male ICR mice; 8 h after i.g. administration): 133.7 ± 9.0 U/L | ALT (adult male ICR mice; 22 h after i.g. administration): 25.4 ± 2.8 U/L | AST (adult male ICR mice; 22 h after i.g. administration): 124.3 ± 12.1 U/L | ALT (adult male ICR mice; 36 h after i.g. administration): 25.1 ± 2.7 U/L | AST (adult male ICR mice; 36 h after i.g. administration): 112.4 ± 11.4 U/L | Cell viability (% of vehicle) (HepG2 cells; HepG2, 25 µM): 106.2 ± 2.3 % of vehicle | Cell viability (% of vehicle) (HepG2 cells; HepG2, 125 µM): 97.2 ± 2.9 % of vehicle | Cell viability (% of vehicle) (HepG2 cells; HepG2, 250 µM): 58.9 ± 0.7 % of vehicle | Cell viability (% of vehicle) (HepG2 cells; HepG2, 500 µM): 22.7 ± 1.6 % of vehicle

COc1cc(/C=C/C(=O)NCCNc2c3c(nc4ccccc24)CCCC3)ccc1OCc1ccc(C)cc1 [Compound 10h, (E)-3–(3-methoxy-4-((4-methylbenzyl)oxy)phenyl)-N-(2-((1,2,3,4-tetrahydroacridin-9-yl)amino)ethyl)acrylamide]
SI (selectivity index, AChE IC50/BuChE IC50) [1]: 0.9 | IC50 [1]: 140 ± 34.4 nM | IC50 [2]: 147 ± 22.4 nM

COc1cc(/C=C/C(=O)NCCNc2c3c(nc4ccccc24)CCCC3)ccc1OCc1ccc(Cl)cc1 [Compound 10c, (E)-3–(4-((4-chlorobenzyl)oxy)-3-methoxyphenyl)-N-(2-((1,2,3,4-tetrahydroacridin-9-yl)amino)ethyl)acrylamide]
SI (selectivity index, AChE IC50/BuChE IC50) [1]: 1.6 | IC50 [1]: 101 ± 14.6 nM | IC50 [2]: 62.5 ± 9.9 nM

COc1cc(/C=C/C(=O)NCCNc2c3c(nc4ccccc24)CCCC3)ccc1OCc1ccc(F)cc1 [Compound 10b, (E)-3–(4-((4-fluorobenzyl)oxy)-3-methoxyphenyl)-N-(2-((1,2,3,4-tetrahydroacridin-9-yl)amino)ethyl)acrylamide]
SI (selectivity index, AChE IC50/BuChE IC50) [1]: 0.7 | IC50 [1]: 115 ± 31.2 nM | IC50 [2]: 163 ± 16.6 nM

Oc1ccc(/C=C/c2cc(O)cc(O)c2)cc1 [Resveratrol, reference compound]
inhibition at 25 µM (Aβ1–42): 45.7%

COc1ccc(COc2ccc(/C=C/C(=O)NCCNc3c4c(nc5ccccc35)CCCC4)cc2OC)cc1 [Compound 10m, (E)-3–(3-methoxy-4-((4-methoxybenzyl)oxy)phenyl)-N-(2-((1,2,3,4-tetrahydroacridin-9-yl)amino)ethyl)acrylamide]
SI (selectivity index, AChE IC50/BuChE IC50) [1]: 0.6 | IC50 [1]: 75.5 ± 12.8 nM | IC50 [2]: 134 ± 11.1 nM

COc1cc(/C=C/C(=O)NCCNc2c3c(nc4ccccc24)CCCC3)ccc1OCc1ccccc1 [Compound 10a, (E)-3–(4-(benzyloxy)-3-methoxyphenyl)-N-(2-((1,2,3,4-tetrahydroacridin-9-yl)amino)ethyl)acrylamide]
SI (selectivity index, AChE IC50/BuChE IC50) [1]: 0.4 | IC50 [1]: 92.2 ± 18.3 nM | IC50 [2]: 215 ± 39.5 nM
